Source: patent publication US9192610B2, “Use of quinazoline derivatives for neurodegenerative diseases” (CONSEJO SUPERIOR DE INVESTIGACIONES CIENTIFICAS, priority 2009, dated 2015)

Legend:
[1] = commercial drugs used to validate the PAMPA assay; literature value; cited from earlier work
[2] = Antioxidant effect, ORAC-FL method (capacity to capture free radicals); settings: 75 mM phosphate buffer pH 7.4, 37° C., compounds tested at 4 concentrations
From the text: Given that in many neurodegenerative diseases neuronal death occurs due to oxidative stress, the capacity of these compounds to capture free radicals has been evaluated using the ORAC methodology.
Determination is following the ORAC-FL method of Ou et al. partially adapted by BMG LABTECH (BMG LABTECH Application note 148 (2006): ORAC Assay on the FLUOstar OPTIMA to Determine Antioxidant Capacity. http://www.bmglabtech.com/application-notes/fluorescence-intensity/orac 148.cfm). The FLUOstar Optima (BMG Labtechnologies GmbH, Offenburg, Germany) plate reader was used with an excitation filter at 485 nm excitation and 520 nm emission. 2,2′-Azobis-(amidinopropane) dihydrochloride (AAPH), (±)-6-hydroxy-2,5,7,8-tetramethylchromane-2-carboxylic acid (trolox) and fluorescein (FL) are purchased from Sigma-Aldrich. The reaction is carried out in 75 mM phosphate buffer (pH 7.4) and a final reaction volume of 200 μL. The antioxidant (25 μL) and fluorescein (150 μL; 10 nM) are placed on black 96-well plates (96F untreat, Nunc™). The mixture is pre-incubated during 30 minutes at 37° C. afterwards rapidly adding a solution of AAPH (25 μL, 240 mM), using a multi-channel pipette. The microplate is rapidly placed on the reader and fluorescence is measured every 90 sec during 90 min. The 96-well plate is agitated automatically before each reading. The compounds are tested at 4 different concentrations (10-1 μ). A blank is also placed (FL+AAPH in phosphate buffer) and as reference compound four concentrations of trolox (10-1 μM). All reactions are carried out in duplicate, and at least three different tests per compound. Data are exported to an Excel spreadsheet (Microsoft), representing absorbance versus time and subsequently the area under curve is calculated following the formula (1) AUC=f1/f0+fi/f0+ . . . +f34/f0+(f35/f0) wherein: AUC=area under curve • f0=fluorescence measured at time 0 • fi=fluorescence measured at time t
The net AUC values of each compound are determined by subtracting from the AUC value of the compound the AUC value of the blank (FL+AAPH in phosphate buffer).
The measurement of antioxidant is expressed in trolox equivalents. Relative trolox equivalents are calculated according to formula (2): […]

SMILES	Bibliography (described permeability) [1]	Antioxidant capacity, Trolox equivalents [2]
CCn1cc(C(=O)O)c(=O)c2cc(F)c(N3CCNCC3)nc21 [Enoxacine]	1.8	
O=c1c2ccccc2[nH]c(=S)n1-c1c(F)cccc1F [Comp. 2, 3-(2,6-difluorophenyl)-4-oxo-2-thioxo-1,2,3,4-tetrahydroquinazoline]		Not to 10 μM
O=c1c2ccccc2[nH]c(=S)n1-c1ccccc1 [Comp. 1, 3-phenyl-4-oxo-2-thioxo-1,2,3,4-tetrahydroquinazoline]		1.19 Trolox equivalents
CN(C)CCCN1c2ccccc2Sc2ccccc21 [Promazine]	8.1	
Cc1cccc2c(=O)n(-c3ccccc3Br)c(=S)[nH]c12 [Comp. 3, 3-(2-bromophenyl)-8-methyl-4-oxo-2-thioxo-1,2,3,4-tetrahydroquinazoline]		1.31 Trolox equivalents
CSc1nc2ccccc2c(=S)n1-c1ccccc1 [Comp. 7, 3-phenyl-2-methylthio-4-thioxo-3,4-dihydroquinazoline]		0.37 Trolox equivalents
S=c1[nH]c2ccccc2c(=S)n1-c1ccccc1 [Comp. 6, 3-phenyl-2,4-dithioxo-1,2,3,4-tetrahydroquinazoline]		0.46 Trolox equivalents
CSc1nc2c(C)cccc2c(=O)n1-c1ccccc1Br [Comp. 5, 3-(2-bromophenyl)-8-methyl-2-methylthio-4-oxo-3,4-dihydroquinazoline]		Not to 10 μM
CSc1nc2c(C)cccc2c(=O)n1-c1c(F)cccc1F [Comp. 4, 3-(2,6-difluorophenyl)-8-methyl-2-methylthio-4-oxo-3,4-dihydroquinazoline]		0.13 Trolox equivalents
